Calls of active or inactive are those of the source. No cut-off for these calls is given here.
Experiments:
[1] = biological target: Cannabinoid receptor 1 (Homo sapiens, UniProt P21554); assay: Displacement of [3H]CP55940 from human recombinant CB1 receptor expressed in HEK293 cells after 90 mins; type: cell-based
[2] = biological target: Cannabinoid receptor 2 (Homo sapiens, UniProt P34972); assay: Displacement of [3H]CP55940 from human recombinant CB2 receptor expressed in HEK293 cells after 90 mins; type: cell-based
[3] = test system: NCI-H460; assay: Cytotoxicity against human H460 cells assessed as cell survival up to 20 ug/ml; type: functional, cell-based
[4] = species on record: Homo sapiens; assay: Selectivity ratio of IC50 for human recombinant CB1 receptor to IC50 for human recombinant CB2 receptor
[5] = test system: NCI-H460; assay: Cytotoxicity against human H460 cells assessed as cell survival at 50 ug/ml; type: functional; conditions: read-out: Activity
[6] = test system: NCI-H460; assay: Cytotoxicity against human H460 cells assessed as cell survival at 5 ug/ml; type: functional; conditions: read-out: Activity

Chain of Cannabinoid receptor 1 (P21554 whole entry): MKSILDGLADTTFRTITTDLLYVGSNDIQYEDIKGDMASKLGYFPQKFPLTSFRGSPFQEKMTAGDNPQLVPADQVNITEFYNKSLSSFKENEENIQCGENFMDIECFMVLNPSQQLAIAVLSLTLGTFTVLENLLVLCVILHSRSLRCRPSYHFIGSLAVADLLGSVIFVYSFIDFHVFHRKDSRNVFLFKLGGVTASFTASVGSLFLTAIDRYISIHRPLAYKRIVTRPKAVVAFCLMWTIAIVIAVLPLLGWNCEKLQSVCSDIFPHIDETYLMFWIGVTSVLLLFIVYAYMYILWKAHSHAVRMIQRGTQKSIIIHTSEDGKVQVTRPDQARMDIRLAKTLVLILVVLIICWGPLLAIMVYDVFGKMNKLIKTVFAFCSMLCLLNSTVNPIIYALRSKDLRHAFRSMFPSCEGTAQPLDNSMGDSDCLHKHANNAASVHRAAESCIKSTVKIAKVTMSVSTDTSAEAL
Chain of Cannabinoid receptor 2 (P34972 whole entry): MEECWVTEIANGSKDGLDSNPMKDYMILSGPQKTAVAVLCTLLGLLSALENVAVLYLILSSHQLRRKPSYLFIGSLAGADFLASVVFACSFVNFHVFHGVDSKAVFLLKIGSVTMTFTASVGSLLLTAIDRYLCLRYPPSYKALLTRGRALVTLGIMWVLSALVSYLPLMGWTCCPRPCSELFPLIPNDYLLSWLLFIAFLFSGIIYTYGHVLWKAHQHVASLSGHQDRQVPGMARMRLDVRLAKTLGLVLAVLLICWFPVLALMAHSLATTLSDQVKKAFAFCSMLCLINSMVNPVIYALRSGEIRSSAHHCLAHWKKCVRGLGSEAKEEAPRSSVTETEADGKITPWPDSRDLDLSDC

Row | SMILES | IC50 [1] | IC50 [2] | Activity [3] | Ki [1] | Ki [2] | Ratio IC50 [4] | viability at 50 µg/mL [5] | viability at 5 µg/mL [6]
1 | C=C(CCCCCCCCCCCCC)CCCC(=O)O/C=C\COC(C)=O | > 10 µM | > 10 µM | inactive | – | – | – | – | –
2 | CCCCC/C=C\C/C=C\C/C=C\C/C=C\CCCC(=O)N[C@@H](CO)C(=O)O | – | – | – | > 10 µM | > 10 µM | – | – | –
3 | CCCCCCCCCCCCC/C=C/CCC(=O)N(C)[C@H](CO)COC [SERINOLAMIDE A] | 2.3 µM | > 10 µM | – | 1.3 µM | – | > 5 | 0% | 60%
